Laboratory results: publication PMC12389581, “Inhibition of Human Coronavirus 229E by Lactoferrin-Derived Peptidomimetics” (Pharmaceutics, 2025)
“And” between values parts separate entries of the source, which are not always exact repeats. Equal entries are not always repeated. Where two headings read alike, the source gives them in different places. Non-standard residues stand in square brackets, D forms with d. Residues, ends and D or L forms follow the SMILES beside them. NMeH = CN[C@@H](Cc1c[nH]cn1)C(=O)O; Gly(N-CH2CH2OH) = O=C(O)CNCCO; NMeL = CN[C@@H](CC(C)C)C(=O)O

Assays:
[1] = biological target: T1, HCoV-229E spike protein (Human coronavirus 229E, UniProt P15423); assay: Microscale thermophoresis (MST) direct binding; details: NT647-labeled spike protein, PBS, triplicate
T1 construct: purchased Acrobiosystems SPN-H52H3
T1 sequence (P15423 16-1173): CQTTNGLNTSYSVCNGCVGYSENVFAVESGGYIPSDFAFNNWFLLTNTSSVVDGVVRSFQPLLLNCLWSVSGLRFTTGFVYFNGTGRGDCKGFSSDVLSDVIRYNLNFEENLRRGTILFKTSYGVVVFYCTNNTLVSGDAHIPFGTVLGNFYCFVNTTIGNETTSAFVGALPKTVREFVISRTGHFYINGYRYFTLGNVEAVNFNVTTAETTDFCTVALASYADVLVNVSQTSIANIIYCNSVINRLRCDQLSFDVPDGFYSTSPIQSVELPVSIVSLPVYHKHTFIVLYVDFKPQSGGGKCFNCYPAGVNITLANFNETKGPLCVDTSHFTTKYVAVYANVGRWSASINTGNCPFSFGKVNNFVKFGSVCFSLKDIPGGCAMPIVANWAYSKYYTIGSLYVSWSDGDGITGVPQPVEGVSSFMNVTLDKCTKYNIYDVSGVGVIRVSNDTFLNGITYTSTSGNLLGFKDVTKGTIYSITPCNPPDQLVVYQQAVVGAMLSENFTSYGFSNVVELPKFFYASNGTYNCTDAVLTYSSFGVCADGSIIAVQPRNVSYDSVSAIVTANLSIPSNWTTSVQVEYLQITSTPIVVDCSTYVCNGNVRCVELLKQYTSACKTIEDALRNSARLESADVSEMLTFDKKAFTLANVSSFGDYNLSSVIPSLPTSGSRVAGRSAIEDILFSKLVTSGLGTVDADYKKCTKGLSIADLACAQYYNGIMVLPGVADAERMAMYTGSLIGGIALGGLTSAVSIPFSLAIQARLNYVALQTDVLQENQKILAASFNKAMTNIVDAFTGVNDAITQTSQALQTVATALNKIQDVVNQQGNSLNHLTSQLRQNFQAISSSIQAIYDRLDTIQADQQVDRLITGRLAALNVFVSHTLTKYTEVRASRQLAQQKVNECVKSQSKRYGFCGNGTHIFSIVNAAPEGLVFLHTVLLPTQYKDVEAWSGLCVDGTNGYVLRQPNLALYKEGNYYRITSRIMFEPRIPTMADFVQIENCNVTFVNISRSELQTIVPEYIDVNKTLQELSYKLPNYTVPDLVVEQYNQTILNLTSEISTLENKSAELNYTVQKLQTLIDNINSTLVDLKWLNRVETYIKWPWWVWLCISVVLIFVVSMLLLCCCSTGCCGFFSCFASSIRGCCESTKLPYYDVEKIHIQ

[2] = tested on: 229E Coronavirus
[3] = biological target: T1, HCoV-229E spike protein; assay: Surface plasmon resonance (SPR) direct binding; details: spike immobilized on CM5 chip, HBS-P+ buffer, 25 °C, 1:1 model, koff/kon
[4] = biological target: T1, HCoV-229E spike protein; assay: Nanoscale differential scanning fluorometry (nanoDSF) thermal shift; format: binding; details: for ∆Tm: 200 μM compound, 2 μM spike protein, PBS pH 7.4; for Tm: 200 μM peptide, 2 µM protein, ramp 20-95 °C
[5] = tested on: Influenza A H1N1 Virus; set-up: method as in earlier work; details: concentration that reduced the cytopathic effect by 50%; cited from earlier work
[6] = concentration that reduced the cytopathic effect by 50%, virus pre-incubated with compound 1 h at 4 °C, compound present 72 h, MRC-5 cells, mean ± standard error of three experiments

Row | Compound | Kd [1] [µM] | EC50 [2, 6] | Kd [3] [nM] | ∆Tm [4] [°C] | Tm [4] [°C] | EC50 ([2]; read-out: EC50, Infection Cycle, compound present during adsorption and entire replication cycle (1 h + 72 h)) [nM] | EC50 [5] [nM]
1 | CC(=O)N[C@@H](CO)C(=O)N[C@@H](CC(C)C)C(=O)N[C@@H](CC(=O)O)C(=O)N[C@@H](CS)C(N)=O [Compound 1, SLDC] (Ac-SLDC-NH2) | 4.92 ± 0.7 | 50 ± 0.4 nM | > 50000 |  |  |  | 
2 | CC(=O)N[C@@H](CO)C(=O)N[C@@H](CCCCN)C(=O)N[C@@H](Cc1c[nH]cn1)C(=O)N[C@@H](CO)C(N)=O [Compound 2, SKHS] (Ac-SKHS-NH2) | 5.12 ± 0.6 | 500 ± 2 nM | 41400 ± 870 |  |  |  | 
3 | CC(=O)N[C@@H](CO)C(=O)N[C@@H](CCCCN)C(=O)N(C)[C@@H](Cc1c[nH]cn1)C(=O)N[C@@H](CO)C(N)=O [Compound 3, SK(N-Me)HS] (Ac-SK[NMeH]S-NH2) | 0.39 ± 0.05 | ~0.031 nM and 0.031 nM | 416 ± 442 | 0.3 | 81.9 | 0.043 | 0.142 ± 0.002
4 | CC(=O)N[C@@H](CO)C(=O)N(C)[C@@H](CC(C)C)C(=O)N[C@@H](CC(=O)O)C(=O)N[C@@H](CS)C(N)=O [Compound 4, S(N-Me)LDC] (Ac-S[NMeL]DC-NH2) | 2.6 ± 1.3 |  | 1150 ± 182 | 0.1 | 81.7 |  | 0.085 ± 0.0004
5 | CC(=O)N[C@@H](CO)C(=O)N[C@@H](CCCCN)C(=O)N[C@@H](Cc1c[nH]cn1)C(=O)N(CCO)CC(N)=O [Compound 6, SKHNhS] (Ac-SKH[Gly(N-CH2CH2OH)]-NH2) | 11 ± 0.8 |  | 1510 ± 465 | 0.4 | 82.0 |  | 0.5 ± 0.004
